The values that follow are results of earlier work, collected in patent US8648060B2, “Use of 3-alpha-androstanediol in combination with a 5-HT1a agonist, in the treatment of sexual dysfunction” (Emotional Brain B.V., priority 2006, dated 2014).

The conditions of this data set: serum concentration; capsule.

`CCCc1nn(C)c2c(=O)[nH]c(-c3cc(S(=O)(=O)N4CCN(C)CC4)ccc3OCC)nc12.O=C(O)CC(O)(CC(=O)O)C(=O)O` [sildenafil, 1-[[3-(6,7-dihydro-1-methyl-7-oxo-3-propyl-1Hpyrazolo[4,3-d]pyrimidin-5-yl)-4-ethoxyphenyl]sulfonyl]-4-methylpiperazine citrate]: the Tmax of sildenafil was 0.5 to 2 h and the T½ is 3.5 h.
